Data reported in patent publication US12139481B2, “Compositions comprising macrocycle derivatives incorporating bridged macrocycles and methods of producing and using same” (Southwestern Oklahoma State University, priority 2015, dated 2024).

What was measured:
[1] = test system: L. donovani promastigotes; experiment: Antileishmanial Alamar Blue assay on promastigotes; assay type: cell-based, Leishmania donovani; conditions: for X more potent than Pentamidine: L. donovani, ratio of molar IC50 to Pentamidine; for L. donovani IC50 / IC50: promastigotes, 48 hours, Alamar Blue; for IC50: read-out: L. donavani IC50
In short: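 Alamar Blue fluorescence (544/590 nm) quantified growth after 48 hours at 26° C of compound-treated promastigotes. Parasites were seeded at 5×10^5/mL in RPMI 1640 plus 10% FCS; drug range 50-3.1 μg/mL, and IC50 derived by plotting percent growth against test concentration.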

[2] = test system: Plasmodium falciparum D6 clone (Sierra Leon, chloroquine-sensitive); experiment: In vitro antimalarial assay, chloroquine-sensitive D6 clone; assay type: cell-based; conditions: D6 clone; for IC50: converted with molecular weight, read-out: P. falciparum D6 IC50; for X more potent than chloroquine: molar IC50 ratio versus chloroquine
Description: (§1) The compounds were assayed for in vitro antimalarial activity against the W2 clone and D6 clone of the pathogenic Plasmodium falciparum. The strains of P. falciparum were obtained from the Division of Experimental Therapeutics, Walter Reed Army Institute of Research, Washington D.C. Strains of Sierra Leon D6 and Indochina W2 are chloroquine-sensitive and chloroquine-resistant, respectively. The parasite was grown in type A human RBCs and, two strains subcultured daily with fresh medium and blood cells. On the day of the assay, a suspension of infected blood cells (2% parasitemia and 2% hematocrit) was prepared using type A human red blood cells. Assays were performed by standard 96-well flat-bottomed microplate methods and done in duplicate at different concentrations. IC50 values were obtained from the dose curves. Artemisinin and chloroquine were included in each assay as the drug controls, and DMSO was used as vehicle control. The whole protocol was developed based on the published method of Makler. The cytotoxicity assays were also performed in parallel against the Vero cells, and the selectivity index was measured. A selectivity index of >9 was considered to indicate a lead for further development of antimalarial drug.

[3] = test system: Plasmodium falciparum W2 clone (Indochina, chloroquine-resistant); experiment: In vitro antimalarial assay, chloroquine-resistant W2 clone; assay type: cell-based; conditions: W2 clone; for IC50: converted with molecular weight, read-out: P. falciparum W2 IC50; for X more potent than chloroquine: molar IC50 ratio versus chloroquine
Description: as §1

[4] = test system: S. mansoni newly transformed schistosomula (NTS); experiment: In vitro testing on Schistosoma mansoni newly transformed schistosomula (NTS), viability score; assay type: cell-based; conditions: 72 h
Description: Assays were prepared according to the laboratory SOP for the lab of Dr. Jennifer Keiser (Swiss Tropical and Public Health Institute, Basel). Harvested S. mansoni cercariae (Liberian strain) obtained from infected Biomphalaria glabrata snails were mechanically transformed into newly transformed schistosomula (NTS) following standard procedures. Briefly, snails were placed under light in the morning to stimulate cercarial shedding. The cercarial suspension was collected, cooled for 30 minutes, and then vigorously pipetted (30×) and vortexed (3 minutes). The suspension was then placed in the incubator (37° C. and 5% CO2) for 30 minutes, and the vortexing and pipetting steps were repeated. The transformation was complete at this point, and the tails were separated from the heads by rinsing three times with cold HBSS. NTS were then incubated overnight in culture medium overnight and used the next day.
The original stock compounds (which were not already dissolved) were dissolved in dimethyl sulfoxide (DMSO) to a concentration of 10 mM. 100 NTS were placed in each well of a 96-well plate with culture medium, and the test compound for a final well volume of 250 μl. […] NTS incubated with no more than 1% DMSO served as control. NTS were kept in an incubator at 37° C. and 5% CO2 for up to 72 hours. After 72 hours, the condition of the NTS was microscopically evaluated using a scale from 3 (normal activity and no tegument alteration) to 0 (dead, completely granulated).

C. glabrata ATCC 90030 = experiment: Antifungal broth dilution assay against C. glabrata (modified CLSI); assay type: cell-based, Candida glabrata; conditions: for C. glabrata IC50 / IC50: in vitro; for IC50: converted with molecular weight; for X more potent than Amphotericin B: molar IC50 ratio versus amphotericin B
In short: (§2)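 Growth read by optical density at 530 nm, duplicate wells, 1% final DMSO. Staphylococcus spp.: Mueller-Hinton pH 7.3, 5.0×10^5 CFU/ml, 35 °C for 16-20 h; Candida spp.: RPMI/dextrose/glutamine/MOPS pH 6.0, 1.5×10^3 CFU/ml, 35 °C for 46-50 h. Reported values are 50% inhibition versus controls, no-growth MIC, and killing MFC/MBC.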

[5] = test system: Cryptococcus neoformans ATCC 90113; experiment: Antimicrobial microdilution assay against Cryptococcus neoformans (modified CLSI/NCCLS, optical density); assay type: cell-based; conditions: for X more potent than Amphotericin B: C. neoformans, ratio of molar IC50 to Amphotericin B; for C. neoformans IC50 / IC50: in vitro, C. neoformans ATCC 90113; for IC50: read-out: C. neoformans IC50 (mol/L)
In short: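 Fungicidal endpoint taken by subculturing 5 μL from each clear well onto agar, MFC being the lowest concentration with no regrowth. Duplicate wells of serially diluted compound (20% DMSO/saline) in RPMI pH 6.0, read at 630 nm pre- and post-incubation, under modified CLSI methods. IC50 means 50% growth inhibition against controls.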

[6] = test system: Staphylococcus aureus ATCC 29213; experiment: Antibacterial broth dilution assay against S. aureus (modified CLSI); assay type: cell-based
In short: as §2

Molecule | X more potent than Pentamidine [1] | L. donovani IC50 [1] | IC50 [1] | P. falciparum D6 IC50 [2] | IC50 [2] | X more potent than chloroquine [2] | P. falciparum W2 IC50 [3] | IC50 [3] | X more potent than chloroquine [3] | Effect at 72 h (%) ([4]; NTS S. mansoni, 33 μM) | C. glabrata IC50 (C. glabrata ATCC 90030) | IC50 (C. glabrata ATCC 90030) | X more potent than Amphotericin B (C. glabrata ATCC 90030) | X more potent than Amphotericin B [5] | C. neoformans IC50 [5] | IC50 [5] | Effect at 72 h (%) ([4]; NTS S. mansoni at 10 μM) | S. aureus IC50 ([6]; in vitro) | IC50 ([6]; in vitro, converted with molecular weight) | X more potent than ciprofloxacen ([6]; molar IC50 ratio versus ciprofloxacen)
c1ccc(CN2CCN3CCN(CC2)CCN(Cc2ccccc2)CC3)cc1 [ANC14, Bn2Bcyclen] | 0.53 | 3.80 µg/mL | 10000 nM | 0.5110 µg/mL | 1350 nM | 0.03 | 0.7602 µg/mL | 2010 nM | 0.34 | 43.24% |  |  |  |  |  |  |  |  |  | 
CC(=O)[O-].CC(=O)[O-].CC(=O)[O-].CN1CCN2CCN(CC1)CCN(Cc1cc(CN3CCN4CCN(C)CCN(CC4)CC3)cc(CN3CCN4CCN(C)CCN(CC4)CC3)c1)CC2.F[P-](F)(F)(F)(F)F.F[P-](F)(F)(F)(F)F.F[P-](F)(F)(F)(F)F.O.O.O.O.O.O.[Ni+2].[Ni+2].[Ni+2] [BNS19] |  |  |  |  |  |  |  |  |  | 18.02% | 4.900 µg/mL | 2970 nM | 0.48 |  |  |  |  |  |  | 
CC(=O)[O-].CC(=O)[O-].CC(=O)[O-].F[P-](F)(F)(F)(F)F.F[P-](F)(F)(F)(F)F.F[P-](F)(F)(F)(F)F.[Co+2].[Co+2].[Co+2].c1c(CN2CCCN3CCN(CCCNCC2)CC3)cc(CN2CCCN3CCN(CCCNCC2)CC3)cc1CN1CCCN2CCN(CCCNCC1)CC2 [CDG025, [Co3(tris-SB-Cyclams)(OAc)3][PF6]3] |  |  |  |  |  |  |  |  |  | 18.02% | 1.500 µg/mL | 948 nM | 1.50 | 0.21 | 1.800 µg/mL | 1140 nM |  |  |  | 
CC(=O)[O-].CC(=O)[O-].CC(=O)[O-].F[P-](F)(F)(F)(F)F.F[P-](F)(F)(F)(F)F.F[P-](F)(F)(F)(F)F.F[P-](F)(F)(F)(F)F.[NH4+].[Zn+2].[Zn+2].[Zn+2].c1c(CN2CCCN3CCN(CCCNCC2)CC3)cc(CN2CCCN3CCN(CCCNCC2)CC3)cc1CN1CCCN2CCN(CCCNCC1)CC2 [CDG026, [Zn3(tris-SB-Cyclams)(OAc)3][PF6]3•NH4PF6] |  |  |  |  |  |  |  |  |  | 11.71% | 3.420 µg/mL | 1940 nM | 0.73 | 0.04 | 10.030 µg/mL | 5680 nM |  |  |  | 
CC(=O)[O-].CC(=O)[O-].CC(=O)[O-].F[P-](F)(F)(F)(F)F.F[P-](F)(F)(F)(F)F.F[P-](F)(F)(F)(F)F.O.[Ni+2].[Ni+2].[Ni+2].c1c(CN2CCNCCN3CCN(CC3)CC2)cc(CN2CCNCCN3CCN(CC3)CC2)cc1CN1CCNCCN2CCN(CC2)CC1 [CDG030, [Ni3(tris-SB-Cyclens)0Ac)3][PF6]3•H2O] |  |  |  |  |  |  |  |  |  | 18.02% | 4.170 µg/mL | 2750 nM | 0.52 | 0.45 | ≤ 0.800 µg/mL | 528 nM |  |  |  | 
c1ccc(CN2CCCN3CCN(CCCN(Cc4ccccc4)CC3)CC2)cc1 [JGL45, Bn2Bcyclam] | 0.55 | 3.94 µg/mL | 9690 nM | 1.0894 µg/mL | 2680 nM | 0.01 | 0.1772 µg/mL | 436 nM | 1.56 | 81.08% |  |  |  |  |  |  | 44.83% |  |  | 
CC(=O)[O-].CC(=O)[O-].CN1CCCN2CCN(CCCN(Cc3ccc(CN4CCCN5CCN(C)CCCN(CC5)CC4)cc3)CC2)CC1.F[P-](F)(F)(F)(F)F.F[P-](F)(F)(F)(F)F.[Ni+2].[Ni+2] [KS33, [Ni2(p-CB-cyclams)(OAc)2](PF6)2] |  |  |  |  |  |  |  |  |  | 0.00% |  |  |  | 0.26 | 1.020 µg/mL | 920 nM |  | 8.490 µg/mL | 7660 nM | 0.04
[Cl-].[Cl-].[Fe+2].c1ccc(CN2CCCN3CCN(CCCN(Cc4ccccc4)CC3)CC2)cc1 [NS08, Fe(Bn2Bcyclam)Cl2] | 1.66 | 1.71 µg/mL | 3210 nM | 0.1726 µg/mL | 324 nM | 0.11 | 0.2271 µg/mL | 426 nM | 1.59 | 18.02% |  |  |  |  |  |  | 51.72% |  |  | 
CC(=O)[O-].CC(=O)[O-].CN(C)C=O.F[P-](F)(F)(F)(F)F.F[P-](F)(F)(F)(F)F.[Co+2].[Co+2].c1cc(CN2CCNCCN3CCN(CC3)CC2)ccc1CN1CCNCCN2CCN(CC2)CC1 [OB30, [Co2(p-SB-Cyclens)(OAc)2][PF6]2•DMF] |  |  |  |  |  |  |  |  |  | 5.41% | 0.800 µg/mL | 729 nM | 1.95 | 0.33 | ≤ 0.800 µg/mL | 729 nM |  |  |  | 
CC(=O)[O-].F[P-](F)(F)(F)(F)F.[Cu+2].c1ccc(CN2CCCN3CCN(CCCN(Cc4ccccc4)CC3)CC2)cc1 [RM37, [Cu(Bn2Bcyclam)(OAc)]PF6] | 0.58 | 6.17 µg/mL | 9150 nM | 0.2855 µg/mL | 424 nM | 0.09 | 0.5451 µg/mL | 809 nM | 0.84 | 100.00% |  |  |  |  |  |  | 24.14% |  |  | 
CC(=O)[O-].CC(=O)[O-].CN1CCCN2CCN(CCCN(Cc3cccc(CN4CCCN5CCN(C)CCCN(CC5)CC4)c3)CC2)CC1.F[P-](F)(F)(F)(F)F.F[P-](F)(F)(F)(F)F.[Cu+2].[Cu+2] [RM52, [Cu2(m-CB-Cyclams)(OAc)2][PF6]2] |  |  |  |  |  |  |  |  |  | 5.41% | 4.940 µg/mL | 4420 nM | 0.32 | 0.32 | 0.820 µg/mL | 733 nM |  |  |  | 
CC(=O)[O-].F[P-](F)(F)(F)(F)F.[Cu+2].c1ccc(CN2CCN3CCN(CC2)CCN(Cc2ccccc2)CC3)cc1 [RM58] |  |  |  | 0.0947 µg/mL | 147 nM | 0.25 | 0.2015 µg/mL | 312 nM | 2.18 | 5.41% |  |  |  |  |  |  |  |  |  | 
[Cu3(tris-SB-Cyclams)(OAc)3][PF6]3•1.5NH4PF6 [CDG027] |  |  |  |  |  |  |  |  |  | 11.71% | 1.630 µg/mL | 886 nM | 1.60 | 0.34 | 1.280 µg/mL | 696 nM |  |  |  | 
[Mn(Bn1Me1-CB-Cyclam)Cl2] [NS11] |  |  |  | 0.6142 µg/mL | 1350 nM | 0.03 | 0.5300 µg/mL | 1160 nM | 0.58 | 5.41% |  |  |  | 0.02 | 5.038 µg/mL | 11000 nM |  |  |  | 
